Results on two molecules are retold here after paper PMC11178787, “Development of a natural product optimization strategy for inhibitors against MraY, a promising antibacterial target” (Nature Communications, 2024).

The structures appear in SMILES notation. Converted amounts (≈) assume the structure as drawn.

One assay concerns T1, S. aureus ATCC 29213.
T1 construct: ATCC 29213
The assay can be described thus: microbe, parasite or virus in culture. To be noted: Staphylococcus aureus, ATCC29213. As for the experimental part: (§1) MICs were determined by a microdilution broth method as recommended by the CLSI with MHB-II. For MICs of stable analogues, a 2-fold dilution of each compound was prepared in DMSO at 100-fold of the final concentration. The strains were inoculated with 5 × 10^5 cfu/mL in 96-well plates (each 100 μL/well), and 1 μL of DMSO solutions of the samples were added (contained less than 1% DMSO). The plates were incubated at 37 °C for 18 h and then MICs were determined. MICs of stable analogues in Table 1 were the highest value in three trials. MICs in Supplementary Table 1 were determined in one trial.  Fig. 2 Results of biological evaluations of hydrazone library. a General structures of hydrazine fragment moiety are shown. Each hydrazine class are represented by different colours (green; BZ, cyan; PA, grey; AC, yellow; AA, orange; LA). b–h MraY inhibitory activity and antibacterial activity of the hydrazone library. The bar graphs show the relative enzyme activity with DMSO as 100% when the compound is treated at given concentration (b,c; TUN at 100 nM, d,e; MRY at 10 nM, f.g; MRD at 100 nM, h; CAP at 1000 nM. n = 1), with the lower bars indicating higher inhibitory activity. The colour of the bars corresponds to Fig. 2a. […] Data of control compounds (van: vancomycin, col: colistin) are shown left column in each panel. E. faecium ATCC 35667, S. aureus ATCC 29213, P. aeruginosa ATCC 27853, K. pneumoniae ATCC 13883, E. cloacae ATCC 13047, A. baumannii ATCC 19606, E. coli ATCC 25922.

The test system of the next assay is T2, K. pneumoniae ATCC 13883.
T2 construct: ATCC 13883
The assay can be described thus: microbe, parasite or virus in culture. To be noted: Klebsiella pneumoniae, ATCC13883. As for the experimental part:
as §1

For the molecule `CC1(C)S[C@@H]2[C@H](NC(=O)[C@H](N)c3ccccc3)C(=O)N2[C@H]1C(=O)O` [ampicillin], the MIC against S. aureus ATCC 29213 is 5 µM (≈ 1.75 µg/mL); against K. pneumoniae ATCC 13883, more than 50 µM.

On to `CN[C@H](CC(C)C)C(=O)N[C@H]1C(=O)N[C@@H](CC(N)=O)C(=O)N[C@H]2C(=O)N[C@H]3C(=O)N[C@H](C(=O)N[C@H](C(=O)O)c4cc(O)cc(O)c4-c4cc3ccc4O)[C@H](O)c3ccc(c(Cl)c3)Oc3cc2cc(c3O[C@@H]2O[C@H](CO)[C@@H](O)[C@H](O)[C@H]2O[C@H]2C[C@](C)(N)[C@H](O)[C@H](C)O2)Oc2ccc(cc2Cl)[C@H]1O` [vancomycin], for which the MIC with S. aureus ATCC 29213 was less than 0.5 µM; with K. pneumoniae ATCC 13883, more than 50 µM.
